Laboratory results reported in patent US20040063662A1, “Selenophene anti-tumor agents” (priority 1996, published 2004).

Legend:
HL-60(TB) = assay: NCI human tumor cell panel: HL-60(TB) (Leukemia); format: cell-based; conditions: Leukemia
SR = assay: NCI human tumor cell panel: SR (Leukemia); format: cell-based; conditions: Leukemia
EKVX = assay: NCI human tumor cell panel: EKVX (Non-Small Cell Lung Cancer); format: cell-based; conditions: Non-Small Cell Lung Cancer
HOP-62 = assay: NCI human tumor cell panel: HOP-62 (Non-Small Cell Lung Cancer); format: cell-based; conditions: HOP-62, Non-Small Cell Lung Cancer
NCI-H226 = assay: NCI human tumor cell panel: NCI-H226 (Non-Small Cell Lung Cancer); format: cell-based; conditions: NCI-H226, Non-Small Cell Lung Cancer
NCI-H23 = assay: NCI human tumor cell panel: NCI-H23 (Non-Small Cell Lung Cancer); format: cell-based; conditions: NCI-H23, Non-Small Cell Lung Cancer
NCI-H322M = assay: cells; format: cell-based; conditions: Homo sapiens, Non-Small Cell Lung Cancer
HCT-15 = assay: NCI human tumor cell panel: HCT-15 (Colon Cancer); format: cell-based; conditions: HCT-15, Colon Cancer, read-out: Log10 GI50 (converted)
HT29 = assay: NCI human tumor cell panel: HT29 (Colon Cancer); format: cell-based; conditions: HT-29, HT29, Colon Cancer
KM12 = assay: NCI human tumor cell panel: KM12 (Colon Cancer); format: cell-based; conditions: KM12, Colon Cancer
SW-620 = assay: NCI human tumor cell panel: SW-620 (Colon Cancer); format: cell-based; conditions: SW-620, Colon Cancer
SF-268 = assay: NCI human tumor cell panel: SF-268 (CNS Cancer); format: cell-based; conditions: SF-268, CNS Cancer
SF-539 = assay: NCI human tumor cell panel: SF-539 (CNS Cancer); format: cell-based; conditions: SF-539, CNS Cancer
MALME-3M = assay: NCI human tumor cell panel: MALME-3M (Melanoma); format: cell-based; conditions: MALME-3M, Melanoma
SK-MEL-2 = assay: NCI human tumor cell panel: SK-MEL-2 (Melanoma); format: cell-based; conditions: SK-MEL-2, Melanoma
SK-MEL-28 = assay: NCI human tumor cell panel: SK-MEL-28 (Melanoma); format: cell-based; conditions: SK-MEL-28, Melanoma
UACC-62 = assay: NCI human tumor cell panel: UACC-62 (Melanoma); format: cell-based; conditions: UACC-62, Melanoma
OVCAR-4 = assay: NCI human tumor cell panel: OVCAR-4 (Ovarian Cancer); format: cell-based; conditions: OVCAR-4, Ovarian Cancer
OVCAR-5 = assay: NCI human tumor cell panel: OVCAR-5 (Ovarian Cancer); format: cell-based; conditions: OVCAR-5, Ovarian Cancer
SK-OV-3 = assay: NCI human tumor cell panel: SK-OV-3 (Ovarian Cancer); format: cell-based; conditions: SK-OV-3, Ovarian Cancer
A498 = assay: NCI human tumor cell panel: A498 (Renal Cancer); format: cell-based; conditions: A498, Renal Cancer
RXF-393 = assay: NCI human tumor cell panel: RXF-393 (Renal Cancer); format: cell-based; conditions: RXF-393, Renal Cancer
SN12C = assay: NCI human tumor cell panel: SN12C (Renal Cancer); format: cell-based; conditions: Renal Cancer
MDA-MB-231/ATCC = assay: NCI human tumor cell panel: MDA-MB-231/ATCC (Breast Cancer); format: cell-based; conditions: Homo sapiens, MDA-MB-231, MDA-MB-231/ATCC, Breast Cancer
T-47D = assay: NCI human tumor cell panel: T-47D (Breast Cancer); format: cell-based; conditions: T47D, Breast Cancer
NCI-H522 = assay: NCI human tumor cell panel: NCI-H522 (Non-Small Cell Lung Cancer)
[1] = system: panel of sixty different human tumor cell lines; assay: NCI human tumor cell panel: whole panel (mean graph summary)
[2] = read-out: Log10 GI50 (converted)
[3] = read-out: Log10 TGI (converted)

## OCc1ccc(-c2ccc(-c3cccs3)[se]2)s1 [NSC 675344]
HL-60(TB); [2]
  GI50: > 100 µM
HL-60(TB); read-out: Log10 TGI
  IC (TGI): > 100 µM
SR; [2]
  GI50: > 100 µM
SR; [3]
  IC (TGI): > 100 µM
EKVX; [2]
  GI50: > 100 µM
EKVX; [3]
  IC (TGI): > 100 µM
HOP-62; [2]
  GI50: 34.7 µM
HOP-62; [3]
  IC (TGI): > 100 µM
NCI-H226; [2]
  GI50: < 0.01 µM
NCI-H226; [3]
  IC (TGI): < 0.01 µM
NCI-H23; [2]
  GI50: 20.4 µM
NCI-H23; [3]
  IC (TGI): > 100 µM
NCI-H322M; [2]
  GI50: 20.9 µM
NCI-H322M; [3]
  IC (TGI): > 100 µM
HCT-15
  GI50: 0.0257 µM
HT29; [2]
  GI50: > 100 µM
HT29; [3]
  IC (TGI): > 100 µM
KM12; [2]
  GI50: > 100 µM
KM12; [3]
  IC (TGI): > 100 µM
SW-620; [2]
  GI50: > 100 µM
SW-620; [3]
  IC (TGI): > 100 µM
SF-268; [2]
  GI50: 23.4 µM
SF-268; [3]
  IC (TGI): > 100 µM
SF-539; [2]
  GI50: > 100 µM
SF-539; [3]
  IC (TGI): > 100 µM
MALME-3M; [2]
  GI50: > 100 µM
MALME-3M; [3]
  IC (TGI): > 100 µM
SK-MEL-2; [2]
  GI50: > 100 µM
SK-MEL-2; [3]
  IC (TGI): > 100 µM
SK-MEL-28; [2]
  GI50: > 100 µM
SK-MEL-28; [3]
  IC (TGI): > 100 µM
UACC-62; [2]
  GI50: < 0.01 µM
UACC-62; [3]
  IC (TGI): 0.0141 µM
OVCAR-4; [2]
  GI50: 0.0417 µM
OVCAR-4; [3]
  IC (TGI): > 100 µM
OVCAR-5; [2]
  GI50: < 0.01 µM
OVCAR-5; [3]
  IC (TGI): 0.0871 µM
SK-OV-3; [2]
  GI50: 16.6 µM
SK-OV-3; [3]
  IC (TGI): > 100 µM
A498; [2]
  GI50: < 0.01 µM
A498; [3]
  IC (TGI): 0.0182 µM
RXF-393; [2]
  GI50: 15.8 µM
RXF-393; [3]
  IC (TGI): 52.5 µM
SN12C; [2]
  GI50: > 100 µM
SN12C; [3]
  IC (TGI): > 100 µM
MDA-MB-231/ATCC; [2]
  GI50: 19.1 µM
MDA-MB-231/ATCC; [3]
  IC (TGI): > 100 µM
T-47D; [2]
  GI50: 0.617 µM
T-47D; [3]
  IC (TGI): > 100 µM
NCI-H522; NCI-H522, read-out: Log10 GI50 (converted)
  GI50: > 100 µM
NCI-H522; NCI-H522, read-out: Log10 TGI
  IC (TGI): > 100 µM
[1]; Homo sapiens, read-out: Log10 GI50, cell line not given (converted)
  GI50: 0.0871 µM
[1]; Homo sapiens, read-out: Log10 LC50, cell line not given (converted)
  CC50: > 100 µM
[1]; cell line not given
  Log10 TGI: >−4.00
